Experimental data taken from US4130648A, “5-Fluorouracil derivatives and antitumor preparations containing the same” (Eisai Co., Ltd., priority 1976, dated 1978).
Read-outs that look alike come from different tables or passages of the source.

Key:
Sarcoma-180 (S-180) [1] = assay: Survival effect, S-180; assay type: in vivo, mice (ICR/JCL, female); conditions: for ILS (%) over control / Mean survival days: 24 hours after implantation
Method: 10^6 cells of S-180 were intraperitoneally implanted in ICR/JCL mouse (female, 6-8 weeks old).
Compound A was administered as a solution of soybean oil at 24 hours after the implantation.
Soybean oil was administered as control for Compound A.
Survival days after implantation was measured. The increase in life-span over control groups (ILS = T/C % - 100) was calculated.

L-1210 leukemia [2] = assay: Duration of antitumor activity, L-1210 leukemia; assay type: in vivo, mice (CDF1, female)
Description: (2) Duration of antitumor activity
10^5 cells of L-1210 leukemia were intraperitoneally implanted in the mice.
Survival days after the implantation were counted.

L-1210 leukemia [3] = assay: Survival effect, L-1210 leukemia; assay type: in vivo, mice (CDF1, female); conditions: for ILS % over controls / Mean survival days: 24 hours after implantation
Method: 3. Antitumor activity on L-1210 leukemia
10^5 cells of L-1210 leukemia were intraperitoneally implanted in CDF1 mice (female, 8-10 weeks old). […]
MCT was administered as control for Compound A.
Mean survival time after the implantation was determined, and the increase in life-span (ILS) over controls was calculated.

[4] = Acute toxicity, LD50 after three weeks observation; assay type: in vivo, mice (CDF1, female); conditions: mouse, in vivo, CDF1 mice, three weeks observation
Description: (§1) LD50 (mg/Kg) after three weeks observation in CDF1 mice (female, 8-10 weeks old)

CDF1 mice = assay: Acute toxicity, LD50 after three weeks observation; assay type: in vivo, female); conditions: from Table 1, compared with FT-207 and 5-FU
Description: as §1

Sarcoma-180 (S-180) [5] = assay: Inhibitory effect on the growth of S-180 ascites form (TPCV); assay type: in vivo, mice (ICR/JCL, female); conditions: for Tumor growth (TPCV : T/C %): i.p., 24 hours after implantation, day 10; for ED50: Mus musculus, ip, 240 h; for ED50 / safety index (LD50 /ED50): S-180 ascites form, from Tables 1 and 2
Method: 2. Antitumor activity against Sarcoma-180 (S-180)
(1) Inhibitory effect on the growth of S-180 ascites form (Intraperitoneal administration)
10^6 cells of S-180 were intraperitoneally implanted in ICR/JCL mice (female, 8-10 weeks old).
Compound A was administered as a solution of soybean oil and 5-FU was administered as saline solution, at 24 hours after the implantation.
Soybean oil was administered as control for the Compound A. Saline solution was administered as control for 5-FU.
Ten days after the implantation of the tumor cells, the total packed cell volumes (TPCV) were measured. The measurement of TPCV was carried out in accordance with Hoshi, A. et al., Chemical & Pharmaceutical Bulletion 17 (4), 848-850 (1969). The results are shown in Table 2, wherein T/C % means the ratio of the TPCV of the test groups to that of the control group.

Sarcoma-180 (S-180) [6] = assay: Effect on growth of solid tumor by oral administration, S-180; assay type: in vivo, mice (ICR/JCL, female); conditions: for Tumor growth (weight : T/C %): 3 hours after implantation, 20 days after; for minimal effective dose: Mus musculus, 480 h, read-out: minimum effective dose
Method: (3) Effect on growth of solid tumor by oral administration
1.8 × 10^6 cells of S-180 were implanted subcutaneously in ICR/JCL mice (female, 6-8 weeks old).
Each of the drugs was orally administered as a solution of safflower oil 3 hours after the implantation.
Safflower oil was administered as control for each of the drugs.
Twenty days after, the tumor weight was measured, and the ratio of the tumor weight to that of the control group (T/C %) was calculated.

[7] = clinical background; cited from earlier work
[8] = ip, intraperitoneal administration
[9] = sc, subcutaneous administration

Structure (SMILES): Cc1c(C)c2c(c(C)c1OC(=O)n1cc(F)c(=O)[nH]c1=O)CCC(C)(CCCC(C)CCCC(C)CCCC(C)C)O2 (racemic) [Compound A, N1-d,l-α-tocopheryl carbonyl-5-fluorouracil]
- ILS (%) over control (Sarcoma-180 (S-180) [1]; 500 mg/Kg): 139.1%
- Mean survival days (Sarcoma-180 (S-180) [1]; 500 mg/Kg): 33.0 days
- ILS (%) over control (Sarcoma-180 (S-180) [1]; 1000 mg/Kg): 215.2%
- Mean survival days (Sarcoma-180 (S-180) [1]; 1000 mg/Kg): 43.5 days
- ILS (%) over control (Sarcoma-180 (S-180) [1]; 2000 mg/Kg): 160.9%
- Mean survival days (Sarcoma-180 (S-180) [1]; 2000 mg/Kg): 36.0 days
- ILS (%) over control (Sarcoma-180 (S-180) [1]; 4000 mg/Kg): 182.6%
- Mean survival days (Sarcoma-180 (S-180) [1]; 4000 mg/Kg): 39.0 days
- survival effect (Sarcoma-180 (S-180) [1]; single administration of 1/8 LD50): marked effect
- Mean survival days (L-1210 leukemia [2]; 1000 mg/Kg i.p. in MCT, 0 days before tumor implantation): 11.6 days
- Mean survival days (L-1210 leukemia [2]; 1000 mg/Kg i.p. in MCT, 1 day before tumor implantation): 13.0 days
- Mean survival days (L-1210 leukemia [2]; 1000 mg/Kg i.p. in MCT, 2 days before tumor implantation): 16.4 days
- Mean survival days (L-1210 leukemia [2]; 1000 mg/Kg i.p. in MCT, 3 days before tumor implantation): 11.8 days
- Mean survival days (L-1210 leukemia [2]; 1000 mg/Kg i.p. in MCT, 4 days before tumor implantation): 11.2 days
- Mean survival days (L-1210 leukemia [2]; 1000 mg/Kg i.p. in MCT, 6 days before tumor implantation): 13.5 days
- duration of antitumor effects (L-1210 leukemia [2]; from Table 6): 6 days
- survival effects (L-1210 leukemia [2]; same day of implantation, or 1-6 days prior to the implantation): exhibits survival effects
- ILS % over controls (L-1210 leukemia [3]; 125 mg/Kg i.p. in MCT): 0%
- Mean survival days (L-1210 leukemia [3]; 125 mg/Kg i.p. in MCT): 7.0 days
- ILS % over controls (L-1210 leukemia [3]; 250 mg/Kg i.p. in MCT): 14%
- Mean survival days (L-1210 leukemia [3]; 250 mg/Kg i.p. in MCT): 8.0 days
- ILS % over controls (L-1210 leukemia [3]; 500 mg/Kg i.p. in MCT): 40%
- Mean survival days (L-1210 leukemia [3]; 500 mg/Kg i.p. in MCT): 9.8 days
- ILS % over controls (L-1210 leukemia [3]; 1000 mg/Kg i.p. in MCT): 73%
- Mean survival days (L-1210 leukemia [3]; 1000 mg/Kg i.p. in MCT): 12.1 days
- ILS % over controls (L-1210 leukemia [3]; 2000 mg/Kg i.p. in MCT): 79%
- Mean survival days (L-1210 leukemia [3]; 2000 mg/Kg i.p. in MCT): 12.5 days
- ILS % over controls (L-1210 leukemia [3]; 4000 mg/Kg i.p. in MCT): 93%
- Mean survival days (L-1210 leukemia [3]; 4000 mg/Kg i.p. in MCT): 13.5 days
- availability (L-1210 leukemia [3]; compared with 5-FU): higher than that of 5-FU
- ratio of dose (corresponding ILS) to LD50, compared with 5-FU (L-1210 leukemia [3]; compared with 5-FU): smaller than that of 5-FU
- effectiveness (L-1210 leukemia [3]; dose of about 1/8 LD50): effective
- LD50 at 504 h [4, 8]: > 4000 mg/kg
- LD50 at 504 h [4, 9]: > 4000 mg/kg
- LD50 at 504 h ([4]; oral administration): > 4000 mg/kg
- acute toxicity (CDF1 mice): lower acute toxicity than FT-207 and 5-FU
- Tumor growth (TPCV : T/C %) (Sarcoma-180 (S-180) [5]; 62 mg/Kg): 77.5%
- Tumor growth (TPCV : T/C %) (Sarcoma-180 (S-180) [5]; 125 mg/Kg): 64.7%
- Tumor growth (TPCV : T/C %) (Sarcoma-180 (S-180) [5]; 250 mg/Kg): 30.4%
- Tumor growth (TPCV : T/C %) (Sarcoma-180 (S-180) [5]; 500 mg/Kg): 3.3%
- Tumor growth (TPCV : T/C %) (Sarcoma-180 (S-180) [5]; 1000 mg/Kg): 0%
- Tumor growth (TPCV : T/C %) (Sarcoma-180 (S-180) [5]; 2000 mg/Kg): 0%
- Tumor growth (TPCV : T/C %) (Sarcoma-180 (S-180) [5]; 4000 mg/Kg): 0%
- ED50 (Sarcoma-180 (S-180) [5]): ~170 mg/kg
- safety index (LD50 /ED50) (Sarcoma-180 (S-180) [5]): more than 24
- toxicity as an antitumor agent (Sarcoma-180 (S-180) [5]; compared with 5-FU): less toxic
- Tumor growth (weight : T/C %) (Sarcoma-180 (S-180) [6]; 62 mg/Kg oral): 106%
- Tumor growth (weight : T/C %) (Sarcoma-180 (S-180) [6]; 125 mg/Kg oral): 87%
- Tumor growth (weight : T/C %) (Sarcoma-180 (S-180) [6]; 250 mg/Kg oral): 33%
- Tumor growth (weight : T/C %) (Sarcoma-180 (S-180) [6]; 500 mg/Kg oral): 47%
- Tumor growth (weight : T/C %) (Sarcoma-180 (S-180) [6]; 1000 mg/Kg oral): 38%
- Tumor growth (weight : T/C %) (Sarcoma-180 (S-180) [6]; 2000 mg/Kg oral): 36%
- minimal effective dose (Sarcoma-180 (S-180) [6]; S-180, po): ~250 mg/kg
- availability (Sarcoma-180 (S-180) [6]; compared with FT-207 and 5-FU): higher than those of the other two drugs
- ratio of the minimum effective dose to toxic dose (LD50) (Sarcoma-180 (S-180) [6]; oral, S-180 solid tumor): less than 1/16

Structure (SMILES): O=c1[nH]cc(F)c(=O)[nH]1 [Example 5-FU, 5-fluorouracil]
- toxicity at the effective dosage [7]: relatively severe toxicity
- Mean survival days (L-1210 leukemia [2]; 50 mg/Kg i.p. in saline, 1 day before tumor implantation): 9.0 days
- Mean survival days (L-1210 leukemia [2]; 50 mg/Kg i.p. in saline, 2 days before tumor implantation): 9.0 days
- Mean survival days (L-1210 leukemia [2]; 50 mg/Kg i.p. in saline, 4 days before tumor implantation): 8.8 days
- ILS % over controls (L-1210 leukemia [3]; 15 mg/Kg i.p. in saline): 15%
- Mean survival days (L-1210 leukemia [3]; 15 mg/Kg i.p. in saline): 8.1 days
- ILS % over controls (L-1210 leukemia [3]; 30 mg/Kg i.p. in saline): 25%
- Mean survival days (L-1210 leukemia [3]; 30 mg/Kg i.p. in saline): 8.8 days
- ILS % over controls (L-1210 leukemia [3]; 60 mg/Kg i.p. in saline): 38%
- Mean survival days (L-1210 leukemia [3]; 60 mg/Kg i.p. in saline): 9.7 days
- LD50 at 504 h [4, 8]: 150 mg/kg
- LD50 at 504 h [4, 9]: 175 mg/kg
- LD50 at 504 h ([4]; intravenous administration): 135 mg/kg
- LD50 at 504 h ([4]; oral administration): 120 mg/kg
- Tumor growth (TPCV : T/C %) (Sarcoma-180 (S-180) [5]; 34 mg/Kg): 43.3%
- Tumor growth (TPCV : T/C %) (Sarcoma-180 (S-180) [5]; 68 mg/Kg): 26.4%
- Tumor growth (TPCV : T/C %) (Sarcoma-180 (S-180) [5]; 125 mg/Kg): 4.3%
- Tumor growth (TPCV : T/C %) (Sarcoma-180 (S-180) [5]; 250 mg/Kg): died
- Tumor growth (TPCV : T/C %) (Sarcoma-180 (S-180) [5]; 500 mg/Kg): died
- ED50 (Sarcoma-180 (S-180) [5]): ~25 mg/kg
- safety index (LD50 /ED50) (Sarcoma-180 (S-180) [5]): about 5
- Tumor growth (weight : T/C %) (Sarcoma-180 (S-180) [6]; 10 mg/Kg oral): 156%
- Tumor growth (weight : T/C %) (Sarcoma-180 (S-180) [6]; 20 mg/Kg oral): 55%
- Tumor growth (weight : T/C %) (Sarcoma-180 (S-180) [6]; 40 mg/Kg oral): 52%
- Tumor growth (weight : T/C %) (Sarcoma-180 (S-180) [6]; 80 mg/Kg oral): 63%
- minimal effective dose (Sarcoma-180 (S-180) [6]; S-180, po): ~20 mg/kg
- ratio of the minimum effective dose to toxic dose (LD50) (Sarcoma-180 (S-180) [6]; oral, S-180 solid tumor): about 1/6

Structure (SMILES): O=c1[nH]c(=O)n(C2CCCO2)cc1F (stereo not drawn) [FT-207, reference compound]
- Mean survival days (L-1210 leukemia [2]; 200 mg/Kg i.p. in saline, 1 day before tumor implantation): 8.8 days
- Mean survival days (L-1210 leukemia [2]; 200 mg/Kg i.p. in saline, 2 days before tumor implantation): 9.0 days
- Mean survival days (L-1210 leukemia [2]; 200 mg/Kg i.p. in saline, 4 days before tumor implantation): 9.0 days
- ILS % over controls (L-1210 leukemia [3]; 50 mg/Kg i.p. in saline): 0%
- Mean survival days (L-1210 leukemia [3]; 50 mg/Kg i.p. in saline): 7.0 days
- ILS % over controls (L-1210 leukemia [3]; 200 mg/Kg i.p. in saline): 1%
- Mean survival days (L-1210 leukemia [3]; 200 mg/Kg i.p. in saline): 7.1 days
- effectiveness (L-1210 leukemia [3]; dose of about 1/4 LD50): it cannot be confirmed that FT-207 is effective
- Tumor growth (weight : T/C %) (Sarcoma-180 (S-180) [6]; 25 mg/Kg oral): 148%
- Tumor growth (weight : T/C %) (Sarcoma-180 (S-180) [6]; 50 mg/Kg oral): 269%
- Tumor growth (weight : T/C %) (Sarcoma-180 (S-180) [6]; 100 mg/Kg oral): 58%
- Tumor growth (weight : T/C %) (Sarcoma-180 (S-180) [6]; 200 mg/Kg oral): 43%
- Tumor growth (weight : T/C %) (Sarcoma-180 (S-180) [6]; 400 mg/Kg oral): 34%
- minimal effective dose (Sarcoma-180 (S-180) [6]; oral, S-180 solid tumor, from Table 4): ~100 mg/kg
